Each block holds one compound with its values, some of them ahead of it.
Legend:
[1] = tested on: extensor digitorium longus (EDL) muscle; assay: Electrically induced twitch amplitude in fast-fiber skeletal muscle (EDL); type: cell-based, mice
Experimental: (§1) Male mice weighing 22-28 g were sacrificed through cervical dislocation and the extensor digitorium longus (EDL) and soleus (SOL) muscles were dissected in a Ringer-Krebs solution, whose composition is given in Table 9, at room temperature. The muscles were placed in vertical chambers with a capacity of 10 ml, and were fixed by their ends to the stimulation electrode fixation rod and a power transducer (Grass FT03) for registering muscle twitches. The chamber solution was bubbled continuously with a carbogenic mixture (95% O2/5% CO2) and kept at a temperature of 37° C. The muscles were stimulated electrically through a stimulator (Grass S88) at a frequency of 0.2 Hz, at 37° C. After the stabilization of the muscle twitches (±30 minutes) a control record was taken in the absence of the drug, and subsequently rising concentrations (from 10 μM to 200 μM) of the L294 derivatives were added every ten minutes, diluted in DMSO. […] The signals recorded by the transducer were amplified (Cyberamp) and the isometric tension was digitized (Digidata 1322A) and stored on a computer. The screening and analysis of the experiment was handled through the use of the Axoscope 8.0 program. (Zapata-Sudo, 2003).
(§2) A measurement of the electrically-induced twitch amplitude was selected to assist the effects of the L294 analogs on the skeletal muscle inotropism. One muscle consisting of fast fibers (extensor digitorium longus-EDL) and the other of slow fibers (soleus-SOL) taken from mice were selected for this purpose. Differences in the timing of the twitches between the fast and slow muscles are shown at the faster recording speed. […] Washing the preparation with Krebs solution caused a partial reversion of the effects induced by the L786.

[2] = tested on: left ventricle bundles of a rat heart; assay: Isometric tension in ventricular bundles; type: cell-based
Experimental: (§3) Once the experiments have been carried out, the findings were subject to statistical analyses being expressed in average ±SEM as a percentage of the control value, and graphs were drawn up using the Sigma Plot 5.0 program to represent the data obtained. For the statistical analysis of the effects on the different muscle tissues, the difference was assessed among the concentrations of the same derivative, using the “t” Student test. In order to ascertain the difference among the derivatives, the one-way ANOVA test was used. The differences were considered as significant for p<0.05. The Cl50 was expressed as an average ±SEM of the values obtained for each experiment through non-linear regression based on the y=yo+ae^−bx equation.
After anesthesia with ethyl ether, male Wistar rats weighing between 240-280 grams were sacrificed through cervical dislocation. The heart was removed rapidly and the papillary muscle and the ventricular bundles were dissected in Tyrode's solution, whose composition is given in Table 2 below, at room temperature. The muscles were placed in vertical chambers with a capacity of 10 mL and fixed at their extremities: the lower portion to a hook located in the stimulation electrode fixation rod and the upper portion connected to a power transducer (Grass FT03) for recording the muscle twitches.
The muscles were stimulated electrically with supra-maximum voltage (50-60 V) through a stimulator (Grass S88) at a frequency of 1.0 Hz. The signals captured by the transducer were amplified (Cyberamp 380, Axon Instruments) and the isometric tension was digitized (Digidata 1322A, Axon Instruments) and stored on a computer. The screening and analysis of the experiment was handled through the Axoscope 8.0 program (Axon Instruments) (Sudo & cols., 2001). The chamber solution was bubbled continuously with a carbogenic mixture (95% O2/5% CO2) and kept at a temperature of 37° C.
After the stabilization of the muscle twitches (approximately 30 min) the records were carried out in the absence (control) and presence of rising concentrations (10 to 100 μM) of the different L294 analogs, diluted in DMSO. The records were carried out in pairs (two papillary and two ventricle) thus allowing the control experiments to be carried out in one of the pairs, meaning with rising quantities of DMSO equivalent to those used to dilute the substances. The reversibility of the effect of the substances was investigated at the end of each experiment, noting the recovery of the muscle twitches after bathing the preparation with Tyrode's solution.

tracheal rings of a rat = assay: Acetylcholine-induced contracture of trachea rings; type: cell-based; details: acetylcholine 10 μM; for muscle relaxation effect on trachea rings: cumulative concentrations up to 200 μM, result in words
Experimental: A preparation of trachea rings is used for observing the probable action of these powerful vasodilators in other smooth musculature tissues. FIG. 12 presents the typical record of the acetylcholine-induced trachea rings contracture (Ach, 10 μM) followed by exposure to rising cumulative concentrations of the L785 derivative up to 200 μM. A dose-dependent reduction may be noted in the amplitude of the acetylcholine-induced contracture.
The same protocol was used for the L786 derivative and the solvent (FIG. 13).

[3] = tested on: rat aorta rings with no endothelium; assay: KCl-induced contracture in aorta rings without endothelium; type: cell-based; details: KCl 40 mM; for IC50: Rattus norvegicus, without endothelium, six experiments, read-out: CI50 (μM) Average ± SEM
Experimental: as §3
Male Wistar rats weighing between 240-280 grams were sacrificed through dislocation of the cervical column under anesthesia using ethyl ether. The aorta artery was removed and transferred to a Petri dish containing modified Tyrode's solution whose composition is described in Table 3 below, where the vessel was cleaned and the connective tissue was removed. According to the scheduled Experiment Protocol, the vascular endothelium was removed mechanically with the assistance of a polyethylene rod. The artery was divided into rings with a width of 2-3 mm. Two hooks were placed in the wall of the vessel in order to record the tension generated by the muscle in a transversal direction. To do so, one of the hooks was tied to a fixed point in the chamber and the other to a power transducer (FT 03) for recording the isometric tension. The tension generated by the muscle was transformed into a digitized electric signal (Digidata 1322A) and stored in a computer for subsequent analysis using the Axoscope 8.0 program (Axon Instruments, Inc). The chamber was filled with Krebs solution, oxygenated and kept at a temperature of 37° C.
After stabilizing the preparation, approximately 120 minutes, the Experiment Protocol began. Initially, in order to identify the presence or absence of the vascular endothelium, the preparation was exposed to phenylephrine (10 μM) and when the contracture in response to this substance was stabilized, acetylcholine (10 μM) was added to the nutrient solution. Relaxation of over 80% in response to the acetylcholine indicated the full integrity of the endothelium and relaxation of less than 10% indicated the absence of endothelium. The tissues in which the relaxation intensity fell between >10% and <80% were discarded. […] […] For the purpose of comparing the potency of some of the L294 analogs, the Cl50 was determined for each experiment using the y=yo+ae^−bx equation and their mean was used for the statistical analysis.

soleus (SOL) muscle = assay: Electrically induced twitch amplitude in slow-fiber skeletal muscle (SOL); type: cell-based, mice; details: for SOL twitch amplitude 30 min-Washing (% of the control): 30 min after washing
Experimental: as §1, §2

IC50 [3]: 40.5 ± 9.5 µM
Structure (SMILES): CN(/N=C/c1cccs1)C(=O)c1ccc2c(c1)OCO2 [L785, 1,3-Benzodioxol-5-carboxylic acid, N-methyl-N′-[1-thiophene-2-yl-meth-(E)-ylidene]-hydrazide]
EDL twitch amplitude 200 μM (% of the control) [1]: 31.6±4.7 % of the control
EDL twitch amplitude 30 min-Washing (% of the control) ([1]; 30 min after washing): 36.4 ± 4.5 % of the control
muscular response in ventricular bundles ([2]; concentration not given, alterations not greater than 10%): 96.5±3.8 % of the control
muscle relaxation effect on trachea rings (tracheal rings of a rat): significant dose-dependent muscle relaxation effect
reversal of the contracture caused by K+, without endothelium ([3]; highest concentration 200 μM, result in words): unable to completely reverse the contracture
SOL twitch amplitude 200 μM (% of the control) (soleus (SOL) muscle): 28.4±6.6 % of the control
SOL twitch amplitude 30 min-Washing (% of the control) (soleus (SOL) muscle): 37.9 ± 9.6 % of the control

IC50 [3]: 151 ± 7.6 µM
Structure (SMILES): O=C(c1ccc2c(c1)OCO2)N(Cc1ccccc1)/N=C/c1cccs1 [L786, 1,3-Benzodioxol-5-carboxylic acid, N-benzyl-N′-[1-thiophene-2-yl-meth-(E)-ylidene]-hydrazide]
effect on EDL muscle twitches ([1]; 50 μM, result in words): reduction in the amplitude and an extension in the duration of the muscle twitches
EDL twitch amplitude 200 μM (% of the control) [1]: 28.7±9.9 % of the control
muscle twitches / contractility in ventricular bundles ([2]; 100 μM): 79.9±10.6 % of the control
amplitude of the acetylcholine-induced contracture of trachea rings (tracheal rings of a rat; 200 μM): 25.3±12.1 % of the control
muscle relaxation effect on trachea rings (tracheal rings of a rat): The same effect was not observed
effect on SOL muscle twitches (soleus (SOL) muscle; 50 μM, result in words): reduction in the amplitude and an extension in the duration of the muscle twitches
SOL twitch amplitude 200 μM (% of the control) (soleus (SOL) muscle): 61.9±5.5 % of the control
SOL twitch amplitude 30 min-Washing (% of the control) (soleus (SOL) muscle): 77.0 ± 10.3 % of the control

— US20080275105A1, “Selective Muscle Relaxant and Pharmaceutical Compositions” (UNIVERSIDADE FEDERAL DO RIO DE JANEIROUFRJ, priority 2004, published 2008)
